What was measured:
Format in all cases: functional
MDA-MB-231 = assay: Cytotoxicity against human MDA-MB-231 cells assessed as cell growth at 10^-8 M after 24 hrs by SRB assay; conditions: MDA-MB-231, 24 h, read-out: Activity
MDA-MB-435 = assay: Cytotoxicity against human MDA-MB-435 cells assessed as cell growth at 10^-5 M after 24 hrs by SRB assay; conditions: MDA-MB-435, 24 h, read-out: Activity
[1] = Cytotoxicity against human HCC2998 cells assessed as cell growth at 10^-5 M after 24 hrs by SRB assay; conditions: HCC 2998, 24 h, read-out: Activity
SR = assay: Cytotoxicity against human SR cells assessed as cell growth at 10^-5 M after 24 hrs by SRB assay; conditions: read-out: Activity
[2] = Cytotoxicity against human HCT116 cells after 24 hrs by SRB assay; conditions: HCT-116, 24 h
NCI-H226 = assay: Cytotoxicity against human NCI-H226 cells after 24 hrs by SRB assay; conditions: NCI-H226, 24 h
[3] = Cytotoxicity against human SF539 cells assessed as cell growth at 10^-7 M after 24 hrs by SRB assay; conditions: SF-539, 24 h, read-out: Activity
[4] = Cytotoxicity against human OVCAR4 cells assessed as cell growth at 10^-4 M after 24 hrs by SRB assay; conditions: OVCAR-4, 24 h, read-out: Activity
[5] = Cytotoxicity against human TK10 cells assessed as cell growth at 10^-5 M after 24 hrs by SRB assay; conditions: TK-10, 24 h, read-out: Activity
[6] = Cytotoxicity against human OVCAR3 cells after 24 hrs by SRB assay; conditions: OVCAR-3, 24 h
NCI-H522 = assay: Cytotoxicity against human NCI-H522 cells assessed as cell growth at 10^-8 M after 24 hrs by SRB assay; conditions: NCI-H522, 24 h, read-out: Activity
K562 = assay: Cytotoxicity against human K562 cells assessed as cell growth at 10^-6 M after 24 hrs by SRB assay; conditions: K562, 24 h, read-out: Activity
[7] = Cytotoxicity against human RXF393 cells assessed as cell growth at 10^-7 M after 24 hrs by SRB assay; conditions: RXF 393, 24 h, read-out: Activity
[8] = Cytotoxicity against human DU145 cells assessed as cell growth at 10^-4 M after 24 hrs by SRB assay; conditions: DU-145, 24 h, read-out: Activity
[9] = Cytotoxicity against human PC3 cells after 24 hrs by SRB assay; conditions: PC-3, 24 h
[10] = Cytotoxicity against human IGROV1 cells assessed as cell growth at 10^-7 M after 24 hrs by SRB assay; conditions: IGROV-1, 24 h, read-out: Activity
[11] = Cytotoxicity against human SNB19 cells assessed as cell growth at 10^-7 M after 24 hrs by SRB assay; conditions: SNB-19, 24 h, read-out: Activity
U-251 = assay: Cytotoxicity against human U251 cells assessed as cell growth at 10^-7 M after 24 hrs by SRB assay; conditions: U-251, 24 h, read-out: Activity
[12] = Cytotoxicity against human SNB75 cells assessed as cell growth at 10^-5 M after 24 hrs by SRB assay; conditions: SNB-75, 24 h, read-out: Activity
[13] = Cytotoxicity against human HCT15 cells assessed as cell growth at 10^-4 M after 24 hrs by SRB assay; conditions: HCT-15, 24 h, read-out: Activity
HT-29 = assay: Cytotoxicity against human HT-29 cells assessed as cell growth at 10^-5 M after 24 hrs by SRB assay; conditions: HT-29, 24 h, read-out: Activity
[14] = Cytotoxicity against human SF268 cells assessed as cell growth at 10^-8 M after 24 hrs by SRB assay; conditions: SF-268, 24 h, read-out: Activity
[15] = Cytotoxicity against human OVCAR8 cells assessed as cell growth at 10^-6 M after 24 hrs by SRB assay; conditions: OVCAR-8, 24 h, read-out: Activity
[16] = Cytotoxicity against human HCT116 cells assessed as cell growth at 10^-6 M after 24 hrs by SRB assay; conditions: HCT-116, 24 h, read-out: Activity
A549 = assay: Cytotoxicity against human A549 cells after 24 hrs by SRB assay; conditions: A549, 24 h
[17] = Cytotoxicity against human HL-60(TB) cells assessed as cell growth at 10^-4 M after 24 hrs by SRB assay; conditions: HL-60, 24 h, read-out: Activity
SK-MEL-28 = assay: Cytotoxicity against human SK-MEL-28 cells assessed as cell growth at 10^-4 M after 24 hrs by SRB assay; conditions: SK-MEL-28, 24 h, read-out: Activity
[18] = Cytotoxicity against human RXF393 cells assessed as cell growth at 10^-6 M after 24 hrs by SRB assay; conditions: RXF 393, 24 h, read-out: Activity
EKVX = assay: Cytotoxicity against human EKVX cells after 24 hrs by SRB assay
[19] = Cytotoxicity against human SF539 cells assessed as cell growth at 10^-4 M after 24 hrs by SRB assay; conditions: SF-539, 24 h, read-out: Activity
[20] = Cytotoxicity against human DU145 cells assessed as cell growth at 10^-6 M after 24 hrs by SRB assay; conditions: DU-145, 24 h, read-out: Activity
[21] = Cytotoxicity against human MOLT4 cells assessed as cell growth at 10^-6 M after 24 hrs by SRB assay; conditions: MOLT-4, 24 h, read-out: Activity
[22] = Cytotoxicity against human OVCAR3 cells assessed as cell growth at 10^-8 M after 24 hrs by SRB assay; conditions: OVCAR-3, 24 h, read-out: Activity
[23] = Cytotoxicity against human RXF393 cells assessed as cell growth at 10^-8 M after 24 hrs by SRB assay; conditions: RXF 393, 24 h, read-out: Activity
[24] = read-out: LC50 (the source's name)
[25] = read-out: pLC50 (the source's name) (converted)

Q: For `O=C(Nc1cc(-c2cccnc2)nc(NCCCN2CCOCC2)n1)c1cc(Br)cc(C(F)(F)F)c1`, which growth at 0.01 µM (MDA-MB-231) is on record?
A: 90%

Q: And the growth at 10 µM (MDA-MB-435)?
A: -90%

Q: And the growth at 10 µM [1]?
A: -77%

Q: What about the growth at 10 µM (SR) of the same molecule?
A: 1%

Q: And the GI50 ([2]; read-out: GI50)?
A: 2.09 µM

Q: And the CC50 [2, 24]?
A: 13.7 µM

Q: What about the TGI ([2]; read-out: TGI) of the same molecule?
A: 4.81 µM

Q: And the GI50 ([2]; read-out: pGI50 (converted))?
A: 2.09 µM

Q: What about the CC50 [2, 25] of the same molecule?
A: 13.8 µM

Q: What about the TGI ([2]; read-out: pTGI (converted)) of the same molecule?
A: 4.79 µM

Q: And the GI50 (NCI-H226; read-out: GI50)?
A: 9.3 µM

Q: And the CC50 (NCI-H226; [24])?
A: 52.3 µM

Q: And the TGI (NCI-H226; read-out: TGI)?
A: 22.7 µM

Q: And the GI50 (NCI-H226; read-out: pGI50 (converted))?
A: 9.33 µM

Q: What about the CC50 (NCI-H226; [25]) of the same molecule?
A: 52.5 µM

Q: What about the TGI (NCI-H226; read-out: pTGI (converted)) of the same molecule?
A: 22.9 µM

Q: And the growth at 0.1 µM [3]?
A: 87%

Q: And the growth at 100 µM [4]?
A: -95%

Q: What about the growth at 10 µM [5] of the same molecule?
A: 34%

Q: And the GI50 ([6]; read-out: GI50)?
A: 3.7 µM

Q: What about the CC50 [6, 24] of the same molecule?
A: 35.8 µM

Q: What about the TGI ([6]; read-out: TGI) of the same molecule?
A: 12.8 µM

Q: And the GI50 ([6]; read-out: pGI50 (converted))?
A: 3.72 µM

Q: What about the CC50 [6, 25] of the same molecule?
A: 35.5 µM

Q: What about the TGI ([6]; read-out: pTGI (converted)) of the same molecule?
A: 12.9 µM

Q: And the growth at 0.01 µM (NCI-H522)?
A: 86%

Q: And the growth at 1 µM (K562)?
A: 88%

Q: And the growth at 0.1 µM [7]?
A: 97%

Q: And the growth at 100 µM [8]?
A: -100%

Q: And the GI50 ([9]; read-out: GI50)?
A: 4.03 µM

Q: And the CC50 [9, 24]?
A: 42.7 µM

Q: What about the TGI ([9]; read-out: TGI) of the same molecule?
A: 15.7 µM

Q: What about the GI50 ([9]; read-out: pGI50 (converted)) of the same molecule?
A: 4.07 µM

Q: What about the CC50 [9, 25] of the same molecule?
A: 42.7 µM

Q: And the TGI ([9]; read-out: pTGI (converted))?
A: 15.8 µM

Q: And the growth at 0.1 µM [10]?
A: 108%

Q: And the growth at 0.1 µM [11]?
A: 98%

Q: What about the growth at 0.1 µM (U-251) of the same molecule?
A: 97%

Q: And the growth at 10 µM [12]?
A: -60%

Q: What about the growth at 100 µM [13] of the same molecule?
A: -96%

Q: What about the growth at 10 µM (HT-29) of the same molecule?
A: -41%

Q: And the growth at 0.01 µM [14]?
A: 97%

Q: What about the growth at 1 µM [15] of the same molecule?
A: 102%

Q: What about the growth at 1 µM [16] of the same molecule?
A: 94%

Q: What about the GI50 (A549; read-out: GI50) of the same molecule?
A: 10.1 µM

Q: And the CC50 (A549; [24])?
A: 48.8 µM

Q: And the TGI (A549; read-out: TGI)?
A: 22.2 µM

Q: And the GI50 (A549; read-out: pGI50 (converted))?
A: 10 µM

Q: What about the CC50 (A549; [25]) of the same molecule?
A: 49 µM

Q: What about the TGI (A549; read-out: pTGI (converted)) of the same molecule?
A: 22.4 µM

Q: What about the growth at 100 µM [17] of the same molecule?
A: -51%

Q: And the growth at 100 µM (SK-MEL-28)?
A: -77%

Q: What about the growth at 1 µM [18] of the same molecule?
A: 92%

Q: And the GI50 (EKVX; read-out: GI50)?
A: 2.72 µM

Q: And the CC50 (EKVX; [24])?
A: 42.7 µM

Q: And the TGI (EKVX; read-out: TGI)?
A: 14.4 µM

Q: And the GI50 (EKVX; read-out: pGI50 (converted))?
A: 2.69 µM

Q: And the CC50 (EKVX; [25])?
A: 42.7 µM

Q: And the TGI (EKVX; read-out: pTGI (converted))?
A: 14.5 µM

Q: What about the growth at 100 µM [19] of the same molecule?
A: -85%

Q: What about the growth at 1 µM [20] of the same molecule?
A: 101%

Q: And the growth at 1 µM [21]?
A: 102%

Q: And the growth at 0.01 µM [22]?
A: 105%

Q: What about the growth at 0.01 µM [23] of the same molecule?
A: 99%

Source: ChEMBL document CHEMBL3774345, “Synthesis of new diarylamides with pyrimidinyl pyridine scaffold and evaluation of their anti-proliferative effect on cancer cell lines” (Bioorg Med Chem Lett, 2016)
